Assay results from patent publication US4537924A, “Quadratic acid amide derivatives, their use as stabilizers, and synthetic resins treated therewith” (Chemische Werke Huels, AG, priority 1982, dated 1985).
Values after ≈ are worked out from the molar mass of the structure shown. Like-named read-outs stand apart in the source and are kept apart here.

Tests used:
[1] = Volatility of pure compound by thermogravimetric determination; assay type: physicochemical; details: heating-up rate 10° C./min; for Volatility: temperature at weight drop of 2%: weight drop 2%; for Volatility: temperature at weight drop of 50%: weight drop 50%; for Volatility: temperature at weight drop of 80%: weight drop 80%
Description: To test volatility, the quadratic acid bisamides or the synthetic resins treated therewith were subjected to thermogravimetric determination (cf. Tables 1 and 6). The heating-up rate was 10° C./min. A DuPont 950 Thermogravimetric Analyzer was applied.

[2] = Extraction of stabilizers from polyamide 12 with boiling organic solvents; assay type: physicochemical; details: 0.25% by weight stabilizer
Description: (a) Polyamide 12 (Number Average Mol. Wt. 30,000: Producer: Chemische Werke Hus AG, D-4370 Marl)
In a pug mill, polyamide 12 granules were combined with quadratic acid bisamides, and the resultant mixture was homogenized in a twin screw extruder. The granulated material obtained in this way was then molded into panels having a thickness of 1 mm, and chips of 30×10 mm were then cut therefrom.
(§1) The solubility values in water and dilute acetic acid (Tables 2 and 3), as well as the extraction values (Tables 4 and 7) confirm the low migrating tendency of the compounds according to the present invention.

[3] = Light exposure test (buckling test) with stabilizers in polyamide 12
[4] = Solubility of pure compound in 10% acetic acid; assay type: physicochemical; details: 22° C.; for solubility: 10% acetic acid
Description: as §1

[5] = Volatility (sublimation) of stabilizers from polyether esters; assay type: physicochemical; details: from polyether ester; 195° C. and 0.1 mbar; 0.5% by weight
[6] = Extraction of stabilizers from polyether esters with boiling organic solvents; assay type: physicochemical; details: from polyether ester
Description: (b) Polyether Esters (Number Average Mol. Wt. 25,000)
Into a polyether ester melt based on terephthalic acid, 1,4-butanediol, and polytetrahydrofuran, 0.5% by weight of the respective quadratic acid amide was introduced. After processing into granules, the latter were used to make press-molded panels of a thickness of 1 mm, from which chips were cut of 30×10 mm.
as §1

[7] = Light exposure test (buckling test) with stabilizers in polypropylene
[8] = Solubility of pure compound in water; assay type: physicochemical
Description: as §1

[9] = with costabilizer mixture (benzotriazole, hexamethylenediamine phenol, phosphite; 0.25% each), 0.25% by wt. stabilizer (for salts: refers to the bisamide)
[10] = without costabilizer, 0.25% by wt. stabilizer (for salts: refers to the bisamide on which the salt is based)

| SMILES | Stabilizing effect in polyamide 12, light exposure to break [3, 9] | Stabilizing effect in polyamide 12, light exposure to break [3, 10] [h] | solubility ([8]; 22° C.) [µg/mL] | solubility ([8]; 100° C.) [µg/mL] | also measured |
| --- | --- | --- | --- | --- | --- |
| CC1(C)CC2(CC(C)(C)N1)OC1(CCCCCCCCCCC1)NC2=O [B, 2,2,4,4-tetramethyl-3,20-diaza-7-oxa-21-oxodispiro[5,1,11,2]heneicosane] |  |  |  |  | Volatility: temperature at weight drop of 2% [1]: 200 °C; Volatility: temperature at weight drop of 50% [1]: 280 °C; Volatility: temperature at weight drop of 80% [1]: 300 °C; Degree of extraction after 8 hour treatment ([2]; boiling chloroform): 97.2 % of Maximally Extractable Amo; Degree of extraction after 8 hour treatment ([2]; boiling methanol): 83.1 % of Maximally Extractable Amo |
| CCN(CC)c1c([O-])c(=[N+](CC)CC)c1=O [C, 1,3-Bis(diethylamino)cyclobutenediylium-2,4-diolate, reference compound] | 511 h | 460 |  |  |  |
| CC1(C)CC(OC(=O)CCCCCCCCC(=O)OC2CC(C)(C)NC(C)(C)C2)CC(C)(C)N1 [Comparative Example A, sebacic acid di-4-hydroxy-2,2,6,6-tetramethylpiperidine ester] |  |  |  |  | Volatility: temperature at weight drop of 2% [1]: 220 °C; Volatility: temperature at weight drop of 50% [1]: 285 °C; Volatility: temperature at weight drop of 80% [1]: 300 °C; solubility [4]: 402000 µg/mL (≈ 836000 µM); Degree of extraction after 8 hour treatment ([2]; boiling chloroform): 69.9 % of Maximally Extractable Amo; Degree of extraction after 8 hour treatment ([2]; boiling methanol): 68.7 % of Maximally Extractable Amo; Degree of sublimation after 24-hour treatment [5]: 88 % of Maximally Sublimable Quan; Degree of extraction after 8-hour treatment ([6]; methanol (65° C.)): 60 % of Maximally Extractable Qua; Degree of extraction after 8-hour treatment ([6]; toluene (110° C.)): 53 % of Maximally Extractable Qua; Stabilizing effect in polypropylene, light exposure to break ([7]; 0.2% by wt. stabilizer): 277 h |
| C[C@@H]1CN(c2c([O-])c(=[N+]3C[C@@H](C)O[C@@H](C)C3)c2=O)C[C@H](C)O1 [E, 1,3-Bis(cis-2,6-dimethylmorpholino)cyclobutenediylium-2,4-diolate, reference compound] | 473 h | 432 |  |  |  |
| CC1(C)CC(N=c2c(O)c(NC3CC(C)(C)NC(C)(C)C3)c2=O)CC(C)(C)N1 [Example 1, 1,3-Bis[2,2,6,6-tetramethyl-4-piperidylamino]cyclobutenediylium-2,4-diolate] | 1,076 h | 790 | < 20 | 150 (≈ 384 µM) |  |
| CC1(C)CC(N=c2c(O)c(NC3CC(C)(C)NC(C)(C)C3)c2=O)CC(C)(C)N1 [Example 1.1, 1,3-bis[2,2,6,6-tetramethyl-4-piperidylamino]cyclobutenediylium-2,4-diolate] |  |  |  |  | Solubility of pure compound in 10% acetic acid [4]: 4.6 g/100 g 10% HAc |
| CC1(C)CC(N=c2c(O)c(NC3CC(C)(C)NC(C)(C)C3)c2=O)CC(C)(C)N1 [Example 1.2, 1,3-bis[2,2,6,6-tetramethyl-4-piperidylamino]cyclobutenediylium-2,4-diolate] | 1,120 h | 780 |  |  | Solubility of pure compound in 10% acetic acid [4]: 2.4 g/100 g 10% HAc |
| CC1(C)CC(N=c2c(O)c(NC3CC(C)(C)NC(C)(C)C3)c2=O)CC(C)(C)N1 [Example 1.3, 1,3-bis[2,2,6,6-tetramethyl-4-piperidylamino]cyclobutenediylium-2,4-diolate] | 976 h | 683 |  |  | Solubility of pure compound in 10% acetic acid [4]: 5.0 g/100 g 10% HAc |
| CC1(C)CC(N=c2c(O)c(NC3CC(C)(C)NC(C)(C)C3)c2=O)CC(C)(C)N1 [Example 1.4, 1,3-bis[2,2,6,6-tetramethyl-4-piperidylamino]cyclobutenediylium-2,4-diolate] |  |  |  |  | Solubility of pure compound in 10% acetic acid [4]: < 0.1 g/100 g 10% HAc |
| CC1(C)CC(N=c2c(O)c(NC3CC(C)(C)NC(C)(C)C3)c2=O)CC(C)(C)N1 [Example 1.5, 1,3-bis[2,2,6,6-tetramethyl-4-piperidylamino]cyclobutenediylium-2,4-diolate] | 1,121 h | 720 |  |  | Solubility of pure compound in 10% acetic acid [4]: 0.9 g/100 g 10% HAc |
| CCCCN(c1c([O-])c(=[N+](CCCC)C2CC(C)(C)NC(C)(C)C2)c1=O)C1CC(C)(C)NC(C)(C)C1 [Example 3, 1,3-Bis[N-n-butyl-N-(2,2,6,6-tetramethyl-4-piperidyl)amino]cyclobutenediylium-2,4-diolate] |  |  | < 100 | 800 (≈ 1590 µM) |  |
| CC(C)CN(c1c([O-])c(=[N+](CC(C)C)C2CC(C)(C)NC(C)(C)C2)c1=O)C1CC(C)(C)NC(C)(C)C1 [Example 4, 1,3-Bis[N-isobutyl-N-(2,2,6,6-tetramethyl-4-piperidyl)amino]cyclobutenediylium-2,4-diolate] |  |  | < 100 | 700 (≈ 1390 µM) |  |
| CCCCCCN(c1c([O-])c(=[N+](CCCCCC)C2CC(C)(C)NC(C)(C)C2)c1=O)C1CC(C)(C)NC(C)(C)C1 [Example 5, 1,3-Bis[N-n-hexyl-(2,2,6,6-tetramethyl-4-piperidyl)amino]cyclobutenediylium-2,4-diolate] |  |  | < 100 | 300 (≈ 537 µM) |  |
| CCCCCCCCN(c1c([O-])c(=[N+](CCCCCCCC)C2CC(C)(C)NC(C)(C)C2)c1=O)C1CC(C)(C)NC(C)(C)C1 [Example 6, 1,3-Bis[N-n-octyl-N-(2,2,6,6-tetramethyl-4-piperidyl)amino]cyclobutenediylium-2,4-diolate] |  |  | < 100 | 200 (≈ 325 µM) |  |
| CC1(C)CC(N(CCO)c2c([O-])c(=[N+](CCO)C3CC(C)(C)NC(C)(C)C3)c2=O)CC(C)(C)N1 [Example 7, 1,3-Bis[N-2-hydroxyethyl-N-(2,2,6,6-tetramethyl-4-piperidyl)amino]cyclobutenediylium-2,4-diolate] |  |  |  |  | Stabilizing effect in polypropylene, light exposure to break [7]: 375 h |
| CC1(C)CC(OCCCN=c2c(O)c(NCCCOC3CC(C)(C)NC(C)(C)C3)c2=O)CC(C)(C)N1 [Example 9, 1,3-Bis[2,2,6,6-tetramethyl-4-piperidyloxypropylamino]cyclobutenediylium-2,4-diolate] | 1,135 h | 820 | 2400 (≈ 4740 µM) | 9500 (≈ 18700 µM) |  |
| CC(CO)N=c1c(O)c(NC(C)CO)c1=O (stereo not drawn) [F, 1,3-Bis[(2-hydroxy-1-methylethyl)amino]cyclobutenediylium-2,4-diolate, reference compound] |  |  |  |  | solubility [4]: 222000 µg/mL (≈ 973000 µM) |
| O=c1c(N2CCCCC2)c([O-])c1=[N+]1CCCCC1 [G, 1,3-Bispiperidinocyclobutenediylium-2,4-diolate, reference compound] | 619 h | 530 |  |  | Stabilizing effect in polypropylene, light exposure to break ([7]; 0.2% by wt. stabilizer): 212 h |
